Molecules are shown by their SMILES. Read-outs that look alike come from different tables or passages of the source.

From patent publication US9000189B2, “Biphenyl-substituted spirocyclic ketoenols” (Bayer CropScience AG, priority 2006, dated 2015) come the findings set out here.

Data set [1] has as its system green peach aphid (Myzus persicae). The data set can be described thus: Example 3: Myzus test (MYZUPE spray treatment). Type of data set: in vivo. The settings on record: 144 h, read-out: efficacy (effect in %, aphids killed).
Data set [2] is described as follows: Determination of the log P values by HPLC on a reversed-phase column (C18), acidic range. Type of data set: physicochemical. To be noted: HPLC reversed-phase C18, 43° C., acidic range (pH 2.3). As to the method: Determination of the Log P Values
The log P values given in the table were determined in accordance with EEC Directive 79/831 Annex V.A8 by HPLC (High Performance Liquid Chromatography) on a reversed-phase column (C18). Temperature: 43° C.
Mobile phases for the determination in the acidic range (pH 2.3): 0.1% aqueous phosphoric acid, acetonitrile; linear gradient from 10% acetonitrile to 90% acetonitrile
The calibration was carried out using unbranched alkan-2-ones (having 3 to 16 carbon atoms) with known log P values (determination of the log P values by the retention times using linear interpolation between two successive alkanones).
The lambda max values were determined in the maxima of the chromatographic signals using the UV spectra from 200 nm to 400 nm.

Data set [3] has as its system larvae of the mustard beetle (Phaedon cochleariae). The experiment in a line: Example 1: Phaedon test (PHAECO spray treatment). The settings on record: 168 h, read-out: efficacy (effect in %, beetle larvae killed).
For data set [4], the system named is caterpillars of the army worm (Spodoptera frugiperda). The experiment in a line: Example 2: Spodoptera frugiperda test (SPODFR spray treatment). The class given is in vivo. To be noted: application rate 100 g/ha, after 7 d.
Data set [5] has as its system cotton aphid (Aphis gossypii). The data set can be described thus: Example 14: Aphis gossypii test (spray to runoff, with ammonium salts and penetrants). Type of data set: in vivo. To be noted: for Kill (%) after 6 d +AS + RME 1000 ppm each: + AS and RME 1000 ppm each; for Kill (%) after 6 d +AS 1000 ppm: + ammonium sulphate 1000 ppm; for Kill (%) after 6 d +RME 1000 pm: + rapeseed oil methyl ester; for Kill (%) after 6 d: active compound alone. An excerpt:
(§1) Solvent: 7 parts by weight of dimethylformamide
(§2) Emulsifier: 2 parts by weight of alkylaryl polyglycol ether
(§3) For application with ammonium salts or phosphonium salts and penetration promoters (rapeseed oil methyl ester 500 EW) these are in each case added in a concentration of 1000 ppm to the spray liquor.
Cotton plants (Gossypium hirsutum) which are heavily infested by the cotton aphid (Aphis gossypii) are sprayed to runoff point with the preparation of active compound at the desired concentration.
(§4) After the desired period of time, the kill in % is determined.

Data set [6] relates to green peach aphid (Myzus persicae). The data set can be described thus: Example 13: activity boost through ammonium/phosphonium salts in combination with penetrants, Myzus persicae test. The class given is in vivo. To be noted: for Kill (%) after 6 d +RME 1000 pm: +RME 1000 pm (rapeseed oil methyl ester 500 EW); for Kill (%) after 6 d: no additive, bell pepper plants sprayed to runoff.
Description: Activity Boost Through Ammonium/Phosphonium Salts in Combination with Penetrants
as §1, §2, §3
Bell pepper plants (Capsicum annuum) heavily infested by the green peach aphid (Myzus persicae) are sprayed to runoff point with the preparation of active compound at the desired concentration.
as §4

Data set [7] is described as follows: Example A: penetration of active compounds through enzymatically isolated cuticles of apple leaves. To be noted: 500 ppm in DMF/emulsifier W 7:1 (w/w), 20° C., 60% rh. The class given is in vitro ADME, apple trees of the Golden Delicious variety. An excerpt:
Boosting of the penetration into the plant by ammonium salts or phosphonium salts, and synergistic boosting of penetration into the plants by ammonium/phosphonium salts in combination with penetration promoters
This test measured the penetration of active compounds through enzymatically isolated cuticles of apple leaves.
The leaves used were cut in the fully developed state from apple trees of the Golden Delicious variety. The cuticles were isolated as follows: • first of all, leaf discs labelled on the underside with dye and formed by punching were filled by means of vacuum infiltration with a pectinase solution (0.2% to 2% strength) buffered to a pH of between 3 and 4, • sodium azide was then added and • the leaf discs thus treated were left to stand until the original leaf structure broke down and the non-cellular cuticle underwent detachment.
After that, only those cuticles from the top leaf sides that were free from stomata and hairs were used. They were washed a number of times in alternation with water and a buffer solution of pH 7. The clean cuticles obtained were, finally, applied to Teflon plaques, smoothed with a gentle jet of air, and dried.
In the next step the cuticular membranes obtained in this way were placed in stainless steel diffusion cells (=transport chambers) for the purpose of membrane transport investigations. […]
The diffusion cells were filled with a 30% strength ethylene glycol/water solution. Penetration was determined by applying 10 μl of the spray liquor of the composition below to the outer side of each of the cuticles. […]
After the spray liquors had been applied, the water was evaporated and the chambers were inverted and placed into theromstated troughs, in which the temperature and humidity over the cuticles was adjustable by means of a gentle stream of air onto the cuticles, with the spray coating (20° C., 60% rh). At regular intervals, samples were taken using an autosampler, and the amount of active compound was determined using HPLC. […]

[8] abbreviates: application rate 500 g/ha, after 6 d.
The mark [9] stands for this setting: reversed-phase HPLC column (C18).

For `CCC(=O)OC1=C(c2c(C)ccc(-c3ccc(F)cc3)c2C)C(=O)NC12CCOCC2` [Example I-1-b-1], the pest or weed control at 500 g/ha in data set [1] (setting [8]) is at least 80%.
For `Cc1ccc(-c2ccc(F)cc2)cc1C1=C(O)C2(CCOCC2)OC1=O` [Example I-2-a-12], the logP in data set [2] was 2.62.
`Cc1ccc(-c2ccc(F)c(F)c2)c(C)c1C1=C(OC(=O)C(C)C)C2(CCOCC2)OC1=O` [Example I-2-b-3]: the pest or weed control at 500 g/ha in data set [1] (setting [8]) is at least 80%.
For the compound `COc1ccc(-c2ccc(C)c(C3=C(O)C4(CCOCC4)NC3=O)c2)cc1F` [Example I-1-a-2], the pest or weed control at 500 g/ha in data set [1] (setting [8]) and in data set [3] was at least 80% in each case.
As for `O=C1OC2(CCCC2)C(O)=C1c1cc(-c2cc(F)c(F)c(F)c2)ccc1Cl` [Example I-2-a-6], the “efficacy (effect in %, caterpillars killed)” value in data set [4] was at least 80%. This compound came in with a lipophilicity (logP) in data set [2] of 3.35.
In data set [2], `O=C1OC2(CCCCC2)C(O)=C1c1cc(-c2ccc(F)c(F)c2)ccc1Cl` [Example I-2-a-8] yielded a logP of 3.48.
`COC1=C(c2c(C)ccc(-c3ccc(F)cc3)c2C)C(=O)NC12CCOCC2` [Example I-1-f-1]: the pest or weed control at 500 g/ha in data set [1] (setting [8]) and in data set [3] was at least 80% in each case.
For the compound `CCOC(=O)C1(OC(=O)Cc2cc(Br)ccc2C)CCCC1` [III-1′], the chromatographic logP in data set [2] (setting [9]) was 4.52.
`O=C1NC2(CCOCC2)C(O)=C1c1cc(-c2ccc(F)c(C(F)(F)F)c2)ccc1Cl` [Example I-1-a-24]: the pest or weed control at 500 g/ha in data set [1] (setting [8]) and in data set [3] was at least 80% in each case.
As for `Cc1ccc(-c2ccc(F)c(F)c2)cc1C1=C(O)C2(CCCC2)OC1=O` [Example I-2-a-3], the log partition coefficient (logP) in data set [2] is recorded as 3.25.
On the same count and under the same terms, as for `Cc1ccc(-c2ccc(F)c(Cl)c2)cc1C1=C(O)C2(CCCC2)OC1=O` [Example I-2-a-4], the figure is 3.50; as for `Cc1ccc(-c2ccc(F)c(F)c2)cc1C1=C(O)C2(CCOCC2)OC1=O` [Example I-2-a-13], 2.69.
Turning to `Cc1ccc(-c2ccc(F)cc2)cc1C1=C(OC(=O)C(C)C)C2(CCCC2)OC1=O` [Example I-2-b-1], the chromatographic logP in data set [2] (setting [9]) worked out at 4.85.
Take `O=C1OC2(CCCC2)C(O)=C1c1cc(-c2ccc(F)cc2)ccc1Cl` [Example I-2-a-7]: the logP in data set [2] turned out to be 3.09.
Compound `CCOC(=O)C1(OC(=O)Cc2cc(-c3ccc(F)cc3)ccc2C)CCCCC1` [III-1] yielded a chromatographic logP in data set [2] (setting [9]) of 5.43.
With `O=C1OC2(CCCCC2)C(O)=C1c1cc(-c2cc(F)c(F)c(F)c2)ccc1Cl` [Example I-2-a-9], in data set [2], the logP was found to be 3.65.
Take `Cc1ccc(-c2ccc(F)cc2)c(C)c1C1=C(OC(=O)C(C)C)C2(CCOCC2)OC1=O` [Example I-2-b-2]: in data set [3], the pest or weed control at 500 g/ha was at least 80%.
In the case of `Cc1ccc(-c2ccc(F)cc2)c(C)c1C1=C(O)C2(CCOCC2)OC1=O` [Example I-2-a-11], the logP in data set [2] turned out to be 2.76.
In turn, `Cc1ccc(-c2ccc(F)c(F)c2)c(C)c1C1=C(O)C2(CCOCC2)OC1=O` [Example I-2-a-16] yielded a logP in data set [2] of 2.88.
In the case of `CCOC(=O)OC1=C(c2cc(-c3ccc(F)cc3)ccc2C)C(=O)OC12CCCCC2` [Example I-2-c-1], the pest or weed control at 500 g/ha in data set [1] and in data set [3] was at least 80% in each case. In addition, the chromatographic logP in data set [2] came out at 4.84.
The compound `O=C1OC2(CCCC2)C(O)=C1c1cc(-c2ccc(F)c(F)c2)ccc1Cl` [Example I-2-a-2] displayed a logP in data set [2] of 3.19.
`Cc1ccc(-c2ccc(F)cc2)cc1C1=C(O)C2(CCCCC2)OC1=O` [Example I-2-a-15]: the pest or weed control at 500 g/ha in data set [1] and in data set [3] was at least 80% throughout. In addition, in data set [2], the chromatographic logP was 3.4.
As for `Cc1ccc(-c2cc(F)c(F)c(F)c2)cc1C1=C(O)C2(CCOCC2)OC1=O` [Example I-2-a-14], the logP in data set [2] is on record as 2.87.
For `CCOC(=O)OC1=C(c2c(C)ccc(-c3ccc(F)cc3)c2C)C(=O)NC12CCOCC2` [Example I-1-c-1], the pest or weed control at 500 g/ha in data set [1] (setting [8]) was at least 80%.
Consider `Cc1ccc(-c2ccc(F)cc2)cc1C1=C(O)C2(CCOCC2)NC1=O` [Example I-1-a-1], for which the pest or weed control at 500 g/ha in data set [1] (setting [8]) and in data set [3] was at least 80% each time. Also, the “Kill (%) after 6 d +AS + RME 1000 ppm each” value in data set [5] (4 ppm) stood at 60%; in data set [5] (20 ppm), 80%; in data set [6] (0.8 ppm active compound), 15%; in data set [6] (4 ppm active compound) it was 99%. Moreover, the “Kill (%) after 6 d +AS 1000 ppm” value was 0% in data set [5] (4 ppm), 5% in data set [5] (20 ppm), 0% in data set [6] (0.8 ppm active compound) and 15% in data set [6] (4 ppm active compound). The “Kill (%) after 6 d +RME 1000 pm” value is on record as 0% in data set [5] (4 ppm), 15% in data set [5] (20 ppm), 0% in data set [6] (0.8 ppm active compound) and 70% in data set [6] (4 ppm active compound). Besides, the “Kill (%) after 6 d” value in data set [5] (4 ppm), in data set [5] (20 ppm), in data set [6] (0.8 ppm active compound) and in data set [6] (4 ppm active compound) was 0% each time.
With `Cc1ccc(-c2ccc(F)cc2)cc1C1=C(O)C2(CCCC2)OC1=O` [Example I-2-a-1], the pest or weed control at 500 g/ha in data set [1] (setting [8]) and in data set [3] was at least 80% in each case. Moreover, in data set [2] (setting [9]), the chromatographic logP came to 3.12.
For the compound `Cc1ccc(-c2ccc(F)cc2)c(C)c1C1=C(O)C2(CCOCC2)NC1=O` [Example I-1-a-4], the “Penetration after 24 h/% EC” value in data set [7] (EC alone, average of 8 to 10 measurements) stood at 3%. The “Penetration after 24 h/% EC + RME (1 g/l) + AS (1 g/l)” value in data set [7] (with rapeseed oil methyl ester 1 g/l and ammonium sulphate 1 g/l) came out at 30%. For the same compound, the “Penetration after 24 h/% EC + RME (1 g/l)” value in data set [7] (with rapeseed oil methyl ester 1 g/l) is 8%. In data set [6] (0.8 ppm active compound), the “Kill (%) after 6 d +AS 1000 ppm” value was determined as 0%, the “Kill (%) after 6 d +AS + RME 1000 ppm each” value came out at 5%, the “Kill (%) after 6 d +RME 1000 pm” value came to 0% and the “Kill (%) after 6 d” value worked out at 0%. In data set [6] (4 ppm active compound), the “Kill (%) after 6 d +AS 1000 ppm” value was determined as 20%, the “Kill (%) after 6 d +AS + RME 1000 ppm each” value turned out to be 98%, the “Kill (%) after 6 d +RME 1000 pm” value is 5% and the “Kill (%) after 6 d” value is given as 15%.
For the compound `O=C1OC2(CCCCC2)C(O)=C1c1cc(-c2ccc(F)cc2)ccc1Cl` [Example I-2-a-10], the logP in data set [2] is listed as 3.37.
The same measure, in the same setting: as for `O=C1OC2(CCCC2)C(O)=C1c1cc(-c2ccc(F)cc2F)ccc1Cl` [Example I-2-a-5], the figure is 3.16.
